pEC50: −log10 of the molar value. Activity calls are given as the source filed them. No cut-off for these calls is given here.
Experiments:
[1] = Antioxidant activity assessed as trolox equivalents of AAPH-induced radical scavenging activity by ORAC-FL assay; type: functional
DNA = assay: Antioxidant activity assessed as protection against ferrous ions and dioxygen-induced free radical-mediated DNA strand break in pEMBL8 supercoiled DNA preincubated with DNA followed by (NH4)2Fe(SO4)2.6H2O addition measured after 6 mins by ethidium bromide staining based agarose gel electrophoresis method; type: functional
NCTC-2544 [2] = assay: Antioxidant activity in human NCTC-2544 cells assessed as reduction in H2O2-induced ROS level at 30 uM preincubated up to 3 hrs followed by H2O2 addition measured for 30 mins by DCFH-DA staining based fluorescence assay; type: functional, cell-based
NCTC-2544 [3] = assay: Cytotoxicity against human NCTC-2544 cells assessed as reduction in cell viability at 30 uM up to 72 hrs by WST8 assay; type: cell-based; conditions: nctc-2544, 72 h
NCTC-2544 [4] = assay: Antioxidant activity in human NCTC-2544 cells assessed as reduction in H2O2-induced ROS level at 30 uM preincubated with cells followed by H2O2 addition measured after 24 hrs by DCFH-DA staining based fluorescence assay; type: functional
NCTC-2544 [5] = assay: Cytotoxicity against human NCTC-2544 cells assessed as reduction in cell viability at 30 uM at 72 hrs by WST8 assay relative to control; type: cell-based; conditions: nctc-2544, 72 h
NCTC-2544 [6] = assay: Antioxidant activity in human NCTC-2544 cells assessed as reduction in intracellular oxidation level at 30 uM after 24 hrs by DCFH-DA staining based fluorescence assay; type: functional, cell-based
NCTC-2544 [7] = assay: Antioxidant activity in human NCTC-2544 cells assessed as reduction in intracellular oxidation level at 30 uM after 1 hr by DCFH-DA staining based fluorescence assay; type: functional, cell-based
NCTC-2544 [8] = assay: Antioxidant activity in human NCTC-2544 cells assessed as reduction in intracellular oxidation level at 30 uM after 3 hrs by DCFH-DA staining based fluorescence assay; type: functional, cell-based

pEC50 (DNA)	Compound	Activity [1] [equiv]	Activity (NCTC-2544 [2])	Activity (NCTC-2544 [3])	Activity (NCTC-2544 [4])	Activity (NCTC-2544 [5]) [%]	Activity (NCTC-2544 [6])	Activity (NCTC-2544 [7])	Activity (NCTC-2544 [8])
3.92	COC(=O)C1=C(C)N(NC(=O)OC(C)(C)C)C23c4cc5c(cc4CCN2Cc2c(ccc(OC)c2OC)C13)OCO5 (centres undefined)	1470	Active	Non-Toxic	inactive	–	–	–	–
3.85	COc1ccc2c(c1OC)CN1CCc3cc4c(cc3C13C2C(C(=O)Nc1ccccc1)=C(C)N3NC(=O)Nc1ccccc1)OCO4 (centres undefined)	185	Active	Non-Toxic	inactive	–	–	–	–
3.71	COc1ccc2c(c1OC)CN1CCc3cc4c(cc3C13C2C(P(=O)(OC)OC)=C(C)N3NC(=O)OC(C)(C)C)OCO4 (centres undefined)	1130	Active	–	inactive	35	–	–	–
3.17	COC(=O)NN1C(C)=C(C(=O)OC)C2c3ccc(OC)c(OC)c3CN3CCc4cc5c(cc4C231)OCO5 (centres undefined)	855	Active	Non-Toxic	inactive	–	–	–	–
4.20	COC(=O)C1=C(C)N(NC(=O)Nc2ccccc2)C23c4cc5c(cc4CCN2Cc2c(ccc(OC)c2OC)C13)OCO5 (centres undefined)	1160	Active	Non-Toxic	inactive	–	–	–	–
3.39	CCOC(=O)NN1C(C)=C(C(=O)OCC)C2c3ccc(OC)c(OC)c3CN3CCc4cc5c(cc4C231)OCO5 (centres undefined)	955	Active	Non-Toxic	inactive	–	–	Active	–
4.13	CCOC(=O)C1=C(C)N(NC(=O)OC(C)(C)C)C23c4cc5c(cc4CCN2Cc2c(ccc(OC)c2OC)C13)OCO5 (centres undefined)	1560	Active	Non-Toxic	37%	–	Active	Active	Active

Compound	pEC50 (DNA)	Activity [1] [equiv]	Activity (NCTC-2544 [2])	Activity (NCTC-2544 [3])	Activity (NCTC-2544 [4])	Activity (NCTC-2544 [5]) [%]	Activity (NCTC-2544 [6])	Activity (NCTC-2544 [7])	Activity (NCTC-2544 [8])
COc1ccc2c(c1OC)CN1CCc3cc4c(cc3C1C2)OCO4 (centres undefined) [TETRAHYDROBERBERINE]	4.03	1580	Active	–	inactive	–	inactive	–	–

Reference: ChEMBL document CHEMBL4152359, “Synthesis and biological evaluation of novel heteroring-annulated pyrrolino-tetrahydroberberine analogues as antioxidant agents” (Bioorg Med Chem, 2018)
